# According to patent US9353090B2, “Heterocyclic carboxylic acids as activators of soluble guanylate cyclase” (Boehringer Ingelheim International GmbH, priority 2014, dated 2016):
# Tests used:
# [1] = target: human soluble guanylate cyclase alpha 1 and beta 1 subunits (sGC) (Homo sapiens (Human), UniProt Q02108+Q02153); test: sGC cellular activator assay (cGMP, HTRF), in the presence and absence of 50% human serum; type: cell-based; conditions: CHO cells stably expressing human sGC alpha 1/beta 1, preincubated with 40 microM ODQ; cGMP by HTRF; Table 2 does not state whether with or without 50% human serum
# Sequence of human soluble guanylate cyclase alpha 1 and beta 1 subunits (sGC) (Q02108 whole entry partner): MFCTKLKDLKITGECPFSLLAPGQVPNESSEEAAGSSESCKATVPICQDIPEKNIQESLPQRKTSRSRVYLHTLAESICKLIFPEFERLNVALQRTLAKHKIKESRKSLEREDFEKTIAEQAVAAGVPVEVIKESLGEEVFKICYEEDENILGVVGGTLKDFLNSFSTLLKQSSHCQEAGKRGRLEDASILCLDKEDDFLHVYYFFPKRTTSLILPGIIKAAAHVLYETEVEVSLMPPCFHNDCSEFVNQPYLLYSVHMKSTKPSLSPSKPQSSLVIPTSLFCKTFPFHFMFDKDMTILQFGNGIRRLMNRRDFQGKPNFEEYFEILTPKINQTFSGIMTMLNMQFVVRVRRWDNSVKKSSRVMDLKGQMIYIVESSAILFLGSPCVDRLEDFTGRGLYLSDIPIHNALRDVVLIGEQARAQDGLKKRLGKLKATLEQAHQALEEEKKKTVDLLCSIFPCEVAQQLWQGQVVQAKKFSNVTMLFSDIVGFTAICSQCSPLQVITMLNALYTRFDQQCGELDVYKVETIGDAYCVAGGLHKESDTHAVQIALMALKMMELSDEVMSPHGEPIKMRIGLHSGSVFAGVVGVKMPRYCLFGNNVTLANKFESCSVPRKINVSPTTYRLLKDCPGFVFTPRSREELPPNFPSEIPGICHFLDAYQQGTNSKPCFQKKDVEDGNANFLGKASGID
# Sequence of human soluble guanylate cyclase alpha 1 and beta 1 subunits (sGC) (Q02153 whole entry): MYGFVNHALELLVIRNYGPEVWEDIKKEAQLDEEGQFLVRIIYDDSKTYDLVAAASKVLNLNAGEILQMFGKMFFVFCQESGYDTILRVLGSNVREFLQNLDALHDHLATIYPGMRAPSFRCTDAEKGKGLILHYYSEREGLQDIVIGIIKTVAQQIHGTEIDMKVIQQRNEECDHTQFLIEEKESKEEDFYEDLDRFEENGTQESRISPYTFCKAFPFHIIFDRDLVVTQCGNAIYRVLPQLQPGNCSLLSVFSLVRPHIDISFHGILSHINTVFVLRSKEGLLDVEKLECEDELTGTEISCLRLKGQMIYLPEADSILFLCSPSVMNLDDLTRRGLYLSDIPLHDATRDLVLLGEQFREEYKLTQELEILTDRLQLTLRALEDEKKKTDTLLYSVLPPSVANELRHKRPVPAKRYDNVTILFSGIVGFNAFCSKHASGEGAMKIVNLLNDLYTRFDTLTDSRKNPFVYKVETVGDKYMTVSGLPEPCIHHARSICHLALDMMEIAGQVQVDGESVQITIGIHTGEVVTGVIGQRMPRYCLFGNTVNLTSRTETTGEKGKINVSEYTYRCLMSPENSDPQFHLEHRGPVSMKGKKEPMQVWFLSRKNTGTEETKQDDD
# Procedure: The sGC cellular activator assay is performed in the presence and absence of 50% human serum (HS) using Chinese hamster ovary cells that have been stably transfected to express the human soluble guanylate cyclase alpha 1 and beta 1 subunits (sGC). Cells are preincubated with 40 microM 1H-[1,2,4]oxadiazolo[4,3-a]quinoxalin-1-one (ODQ), an sGC inhibitor, for one h in buffer containing 0.1% bovine serum albumin and 3-isobutyl-1-methylxanthine (IBMX). Concentration response curves are prepared for test compounds in DMSO. An intermediate dilution of the compounds is performed in either buffer containing IBMX or type AB HS containing IBMX. Diluted compounds are added to cells and they are incubated at room temperature for thirty min. cGMP is measured using a CisBio homogeneous time resolved fluorescence kit and the EC50 is calculated for each compound.
# Representative compounds of the present invention were tested for activity the above assay. Preferred compounds have an EC50 of <1,000 nM in the above assay and more preferred compounds have an EC50<200 nM.
# physchem = conditions: kinetic from dmso stock
# Procedure: Solubility is measured by the following method.
# 100 uL, 10 mM DMSO stock solution of each compound is prepared in a 96 well plate format. The experiment is done in single determination at 3 pH values (2.2, 4.5 and 6.8). For each pH and one reference, 40 uL of each compound is needed.
# McIlvaine pH 2.2: To 2.076 g citric acid monohydrate and 0.043 g Na2HPO4×2H2O add 100 ml deionized water
# McIlvaine pH 4.5: To 1.166 g citric acid monohydrate and 1.585 g Na2HPO4×2H2O add 100 ml deionized water
# McIlvaine pH 6.8: To 0.476 g citric acid monohydrate and 2.753 g Na2HPO4×2H2O add 100 ml deionized water
# With a suitable liquid handling device (Multipette® or a liquid handler) 390 uL of each buffer solution and 10 uL of compound is added to each well of a 96 deep well plate. The plates are covered firmly and shaken for 24 h on an over head shaker (at 54 RPM) at room temperature. The DMSO content in the final buffer is 2.5% v/v.
# After 24 h the plates are centrifuged to remove droplets on the lid before opening (for ˜5 min at 2500 RPM).
# The filtration is done under vacuum with Millipore 96 well filter plate. Filtrate is collected in a deep well plate and transferred to a suitable plate for UPLC analysis.
# The reference plate is prepared by adding 10 uL of compound to 390 uL of 50:50 acetonitrile/water in a 96 deep well plate and transferred to a suitable plate for UPLC analysis. Wells are checked visually for precipitation, any presence noted under comments in reported results.
# The samples are measured with UPLC-UV using the chromatographic method described below.
# Waters Empower®2 software is used for generating Sample Sets (according to the plate layout), Sample Set Methods and Instrument Methods.
# One Sample Set comprises the methods for three 96 well plates (one reference plate and two sample plates, and includes one Sample Set Method and one Instrument Method).
# Data Processing and Analysis
# The UV chromatograms collected at 254 nm are integrated and processed.
# It is assumed that the compound is completely dissolved in the reference solution (50:50 acetonitrile/water)
# [2] = Human liver microsome (HLM) metabolic stability assay; type: in vitro ADME; conditions: human liver microsomes
# Procedure: The 5 time point, high-throughput human liver microsome (HLM) metabolic stability assay is designed to determine in vitro compound metabolism. Compounds are incubated with HLMs at a concentration of 1 uM, at 37° C., for a total of 60 min. The percent of compound remaining at 5, 15, 30, and 60 min is used to calculate the t1/2 (min), CLint (mL/min/kg), CLh (mL/min/kg), and % Qh. The assay is based on a 96-well format and can accommodate up to 92 compounds per plate (n=1).
# Using the 96-well multi-channel head, the Biomek FX, equipped with a Peltier heating block/shaker, is programmed to accomplish the following steps: • 1. Pipette 175 uL of 1.15 mg/mL microsomes into each of the 96 conical inserts (Analytical Sales and Products, catalog number 96PL05) that fit into the plate of the Peltier heating block/shaker (the incubation plate) • 2. Add 5 uL of compounds from the assay plate to the microsomes and shake the mixture at 600 rpm at 42.1° C. for 10 min (a setting of 42.1° C. on the Peltier is required for the samples to incubate at 37° C.) • 3. After 10 min, prompt the user to add the NADPH plate to the deck and add 20 uL from the NADPH plate to the incubation plate to start the reaction • 4. Add 215 uL of 100%, cold acetonitrile containing an internal standard(s) to a 0 minute, 5 minute, 15 minute, 30 minute, and 60 minute “quench” plate • 5. At 0 min, 5 min, 15 min, 30 min, and 60 min into the incubation, aspirate 12 uL from the incubation mixture and add it to the quench solution to stop the reaction • 6. Add 185 uL HPLC grade water to each well of the 0, 5, 15, 30 and 60 minute quench plates to dilute compounds to the appropriate concentration for the mass spectrometer
# After all time points are collected, the quench plates are sealed with 96-well pierceable plate mats or heat sealing foil and centrifuged at 3000 rpm for 15 min to pellet the microsomes.
# The plates are analyzed using LC/MS/MS with electron spray ionization (ESI) and the previously determined MRM transitions. The LC method includes the following parameters:
# Using an Excel template in Activitybase, the peak areas corresponding to 5, 15, 30 and 60 min are compared to the peak area at 0 min to calculate the percent of remaining compound using the following equation:
# Percent compound remaining=(AUC at Time t min/AUC at Time 0 min)×100 where t=0, 5, 15, 30 or 60 min.
# Time (min) is plotted against the natural logarithm (Ln) of the percent compound remaining to determine the slope. The slope is used to calculate t1/2 (min) using the equation, t1/2=0.693/slope.
# Clh, Hepatic clearance • Hepatic flow*f(u)*Clint/(hepatic flow+f(u)*Clint)
# Qh, % Hepatic blood flow • (Clh/Hepatic flow)*100
# Preferred compounds have % Qh values of less than 24.
# [3] = pH 2.2, aqueous buffer, Solubility (pH 2.2)
# [4] = pH 4.5, aqueous buffer, Solubility (pH 4.5)
# [5] = pH 6.8, aqueous buffer, Solubility (pH 6.8)
Compound,EC50 [1] [nM],solubility at 24 h (physchem; [3]) [µg/mL],solubility at 24 h (physchem; [4]) [µg/mL],solubility at 24 h (physchem; [5]) [µg/mL],"Metabolic stability (Qh %), % hepatic blood flow [2] [%]"
COc1cc(COc2c(C)cccc2-c2cccc(N3C[C@@H]4C[C@]4(C(=O)O)C3)n2)cc2c1CN(C1CCOCC1)CC2 [Compound 27],16,110,95,68,<24
COc1cc(COc2c(C)cccc2-c2cccc(N3C[C@@H]4C[C@]4(C(=O)O)C3)n2)cc2c1CN(C1COC1)CC2 [Compound 28],19,110,90,73,<24
Cc1cccc(-c2cccc(N3C[C@@H]4C[C@]4(C(=O)O)C3)n2)c1OCc1cc(C#N)c2c(c1)CCN(C1COC1)C2 [Compound 29],18,110,76,79,<24
Cc1cccc(-c2cccc(N3C[C@@H]4C[C@]4(C(=O)O)C3)n2)c1OCc1ccc2c(c1)CCN(C1CCOCC1)CC2 [Compound 31],7,110,95,67,<24
Cc1cccc(-c2cccc(N3C[C@@H]4C[C@]4(C(=O)O)C3)n2)c1OCc1ccc2c(c1)CCN(C1COC1)CC2 [Compound 32],4,120,88,50,<24
Cc1ccc(OCc2ccc3c(c2C)CCN(C2CCOCC2)C3)c(-c2cccc(N3C[C@@H]4C[C@]4(C(=O)O)C3)n2)c1 [Compound 35],45,100,93,6.4,<24
Cc1ccc(OCc2ccc3c(c2C)CCN(C2COC2)C3)c(-c2cccc(N3C[C@@H]4C[C@]4(C(=O)O)C3)n2)c1 [Compound 36],120,100,84,48,<24
Cc1ccc(OCc2cc(C)c3c(c2)CCN(C2COC2)C3)c(-c2cccc(N3C[C@@H]4C[C@]4(C(=O)O)C3)n2)c1 [Compound 38],354,100,85,59,<24
Cc1ccc(OCc2cc(C)c3c(c2C)CCN(C2COC2)C3)c(-c2cccc(N3C[C@@H]4C[C@]4(C(=O)O)C3)n2)c1 [Compound 40],38,98,79,52,<24
Cc1ccc(OCc2ccc3c(c2C)CCN(C2CCOCC2)CC3)c(-c2cccc(N3C[C@@H]4C[C@]4(C(=O)O)C3)n2)c1 [Compound 41],16,100,84,45,<24
COC[C@H]1N(c2cccc(-c3cccc(C)c3OCc3ccc4c(c3)CCN(C3CCOCC3)C4)n2)C[C@@H]2C[C@@]21C(=O)O [Compound 44],58,130,110,86,<24
COC[C@H]1N(c2cccc(-c3cccc(C)c3OCc3ccc4c(c3C)CCN(C3CCOCC3)C4)n2)C[C@@H]2C[C@@]21C(=O)O [Compound 46],18,110,96,77,<24
COC[C@H]1N(c2cccc(-c3cccc(C)c3OCc3cc(C)c4c(c3)CCN(C3CCOCC3)C4)n2)C[C@@H]2C[C@@]21C(=O)O [Compound 48],18,110,69,83,<24
COC[C@H]1N(c2cccc(-c3cccc(C)c3OCc3cc(C)c4c(c3)CCN(C3COC3)C4)n2)C[C@@H]2C[C@@]21C(=O)O [Compound 49],12,120,95,82,<24
CCc1cc(COc2c(C)cccc2-c2cccc(N3C[C@@H]4C[C@]4(C(=O)O)[C@H]3COC)n2)cc2c1CN(C1CCOCC1)CC2 [Compound 53],9,130,110,80,<24

# Next, values leading:
EC50 [1] [nM],solubility at 24 h (physchem; [3]) [µg/mL],solubility at 24 h (physchem; [4]) [µg/mL],solubility at 24 h (physchem; [5]) [µg/mL],"Metabolic stability (Qh %), % hepatic blood flow [2] [%]",Compound
8,110,84,62,<24,Cc1cccc(-c2cccc(N3C[C@@H]4C[C@]4(C(=O)O)C3)n2)c1OCc1cc(C#N)c2c(c1)CCN(C1CCOCC1)C2 [Compound 30]
4,110,93,68,<24,Cc1cccc(-c2cccc(N3C[C@@H]4C[C@]4(C(=O)O)C3)n2)c1OCc1ccc2c(c1C)CCN(C1CCOCC1)CC2 [Compound 33]
2,110,97,67,<24,Cc1cccc(-c2cccc(N3C[C@@H]4C[C@]4(C(=O)O)C3)n2)c1OCc1ccc2c(c1C)CCN(C1COC1)CC2 [Compound 34]
299,100,93,50,<24,Cc1ccc(OCc2cc(C)c3c(c2)CCN(C2CCOCC2)C3)c(-c2cccc(N3C[C@@H]4C[C@]4(C(=O)O)C3)n2)c1 [Compound 37]
50,100,91,45,<24,Cc1ccc(OCc2cc(C)c3c(c2C)CCN(C2CCOCC2)C3)c(-c2cccc(N3C[C@@H]4C[C@]4(C(=O)O)C3)n2)c1 [Compound 39]
50,96,87,58,76,Cc1ccc(OCc2ccc3c(c2C)CCN(C2COC2)CC3)c(-c2cccc(N3C[C@@H]4C[C@]4(C(=O)O)C3)n2)c1 [Compound 42]
63,140,120,97,<24,COC[C@H]1N(c2cccc(-c3cccc(C)c3OCc3ccc4c(c3)CCN(C3COC3)C4)n2)C[C@@H]2C[C@@]21C(=O)O [Compound 43]
17,110,95,84,<24,COC[C@H]1N(c2cccc(-c3cccc(C)c3OCc3ccc4c(c3C)CCN(C3COC3)C4)n2)C[C@@H]2C[C@@]21C(=O)O [Compound 47]
8,120,96,77,26,COC[C@H]1N(c2cccc(-c3cccc(C)c3OCc3cc(C)c4c(c3)CCN(C3CCOC3)C4)n2)C[C@@H]2C[C@@]21C(=O)O (stereo partly drawn) [Compound 50]
